# Assay results as given in PubChem BioAssay (NCI).
#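 96-well plates; 48 h exposure; 5 concentrations. Endpoints by linear interpolation between flanking doses. Not reached: highest tested concentration assigned. GI50 = concentration required for 50% inhibition of growth. The concentration for full growth arrest is given as TGI.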
# What was measured:
# Assay in all cases: growth of human tumour cells (NCI), 48 h
# NCI-H522 lung = test system: NCI-H522 lung
# BT-549 breast = test system: BT-549 breast
# CAKI-1 renal = test system: CAKI-1 renal
# HCT-15 colon = test system: HCT-15 colon
# OVCAR-8 ovarian = test system: OVCAR-8 ovarian
# RXF 393 renal = test system: RXF 393 renal
# SF-539 CNS = test system: SF-539 CNS
# HOP-92 NSCLC = test system: HOP-92 NSCLC
# DU-145 prostate = test system: DU-145 prostate
# NCI-H460 lung = test system: NCI-H460 lung
# CCRF-CEM leukemia = test system: CCRF-CEM leukemia
# NCI-H23 lung = test system: NCI-H23 lung
# OVCAR-3 ovarian = test system: OVCAR-3 ovarian
# SK-MEL-28 melanoma = test system: SK-MEL-28 melanoma
# RPMI-8226 leukemia = test system: RPMI-8226 leukemia
# KM12 colon = test system: KM12 colon
# COLO 205 colon = test system: COLO 205 colon
# PC-3 prostate = test system: PC-3 prostate
# HCT-116 colon = test system: HCT-116 colon
# SR leukemia = test system: SR leukemia
# SF-295 CNS = test system: SF-295 CNS
# SK-OV-3 ovarian = test system: SK-OV-3 ovarian
# IGROV1 ovarian = test system: IGROV1 ovarian
# LOX IMVI melanoma = test system: LOX IMVI melanoma
# MDA-MB-231 breast = test system: MDA-MB-231 breast
# NCI-H226 lung = test system: NCI-H226 lung
# NCI/ADR-RES ovarian = test system: NCI/ADR-RES ovarian
# M14 melanoma = test system: M14 melanoma
compound,measurement,setting,value
COc1ccc(S(=O)(=O)N(Cc2ccc3c(n2)C=CC(C)(C)O3)C2CCC2)cc1OC,GI50,NCI-H522 lung,< 10 nM
same,TGI,NCI-H522 lung,76.8 nM
same,GI50,BT-549 breast,< 10 nM
same,TGI,BT-549 breast,171 nM
same,GI50,CAKI-1 renal,< 10 nM
same,TGI,CAKI-1 renal,145 nM
same,GI50,HCT-15 colon,15.4 nM
same,TGI,HCT-15 colon,> 33600 nM
same,GI50,OVCAR-8 ovarian,< 10 nM
same,GI50,RXF 393 renal,< 10 nM
same,TGI,RXF 393 renal,222 nM
same,GI50,SF-539 CNS,< 10 nM
same,TGI,SF-539 CNS,378 nM
same,GI50,HOP-92 NSCLC,< 10 nM
same,TGI,HOP-92 NSCLC,< 10 nM
same,GI50,DU-145 prostate,< 10 nM
same,TGI,DU-145 prostate,3450 nM
same,GI50,NCI-H460 lung,19.6 nM
same,GI50,CCRF-CEM leukemia,< 10 nM
same,TGI,CCRF-CEM leukemia,92.2 nM
same,GI50,NCI-H23 lung,14.5 nM
same,TGI,NCI-H23 lung,1050 nM
same,GI50,OVCAR-3 ovarian,< 10 nM
same,TGI,OVCAR-3 ovarian,95.5 nM
same,GI50,SK-MEL-28 melanoma,< 10 nM
same,TGI,SK-MEL-28 melanoma,461 nM
same,GI50,RPMI-8226 leukemia,33.1 nM
same,TGI,RPMI-8226 leukemia,163 nM
same,GI50,KM12 colon,< 10 nM
same,TGI,KM12 colon,> 37700 nM
same,GI50,COLO 205 colon,< 10 nM
same,TGI,COLO 205 colon,53.7 nM
same,GI50,PC-3 prostate,< 10 nM
same,TGI,PC-3 prostate,2370 nM
same,GI50,HCT-116 colon,< 10 nM
same,TGI,HCT-116 colon,4050 nM
same,GI50,SR leukemia,< 10 nM
same,TGI,SR leukemia,32.4 nM
same,GI50,SF-295 CNS,13.4 nM
same,TGI,SF-295 CNS,542 nM
same,GI50,SK-OV-3 ovarian,< 10 nM
same,TGI,SK-OV-3 ovarian,< 10 nM
same,GI50,IGROV1 ovarian,< 10 nM
same,TGI,IGROV1 ovarian,262 nM
same,GI50,LOX IMVI melanoma,< 10 nM
same,TGI,LOX IMVI melanoma,176 nM
same,GI50,MDA-MB-231 breast,< 10 nM
same,TGI,MDA-MB-231 breast,13.1 nM
same,GI50,NCI-H226 lung,10.1 nM
same,TGI,NCI-H226 lung,3750 nM
same,GI50,NCI/ADR-RES ovarian,130 nM
same,TGI,NCI/ADR-RES ovarian,> 100000 nM
same,GI50,M14 melanoma,< 10 nM
same,TGI,M14 melanoma,228 nM
